Test results published in patent US12187709B2 (Genentech, Inc., priority 2021, dated 2025).

Assays:
Cbl-b = Cbl-b (Homo sapiens (Human), UniProt Q13191); test: Cbl-b LCK Ub TR-FRET assay (Cbl-b Lck HTRF); type: biochemical; details: for IC50: Cbl-b LCK Ub TR-FRET; for fold-selectivity (Cbl-b over C-cbl) / (fold-selectivity) Cbl-b and C-Cbl Selectivity: ratio C-cbl Lck HTRF IC50 / Cbl-b Lck HTRF IC50
Experimental: (§1) 6 μL of detection mixture was added to all wells and briefly centrifuged before incubating for 20 min at room temperature. […] IC50 was generated using no LCK as the low control and DMSO as the high control.

c-Cbl = c-Cbl (Homo sapiens (Human), UniProt P22681); test: C-Cbl LCK Ub TR-FRET assay (C-cbl Lck HTRF); type: biochemical
Chain of c-Cbl (P22681 47-435): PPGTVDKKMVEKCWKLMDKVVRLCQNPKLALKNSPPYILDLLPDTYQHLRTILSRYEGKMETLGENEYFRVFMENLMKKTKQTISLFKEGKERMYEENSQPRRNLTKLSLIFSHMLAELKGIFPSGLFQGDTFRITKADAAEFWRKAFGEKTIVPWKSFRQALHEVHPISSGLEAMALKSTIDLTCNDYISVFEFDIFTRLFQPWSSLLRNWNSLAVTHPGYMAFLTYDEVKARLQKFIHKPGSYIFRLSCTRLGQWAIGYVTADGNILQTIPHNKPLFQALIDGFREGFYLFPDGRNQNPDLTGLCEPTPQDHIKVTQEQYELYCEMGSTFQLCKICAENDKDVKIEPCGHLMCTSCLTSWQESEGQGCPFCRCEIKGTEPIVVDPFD
Experimental: as §1

Chain of Cbl-b (Q13191 40-426): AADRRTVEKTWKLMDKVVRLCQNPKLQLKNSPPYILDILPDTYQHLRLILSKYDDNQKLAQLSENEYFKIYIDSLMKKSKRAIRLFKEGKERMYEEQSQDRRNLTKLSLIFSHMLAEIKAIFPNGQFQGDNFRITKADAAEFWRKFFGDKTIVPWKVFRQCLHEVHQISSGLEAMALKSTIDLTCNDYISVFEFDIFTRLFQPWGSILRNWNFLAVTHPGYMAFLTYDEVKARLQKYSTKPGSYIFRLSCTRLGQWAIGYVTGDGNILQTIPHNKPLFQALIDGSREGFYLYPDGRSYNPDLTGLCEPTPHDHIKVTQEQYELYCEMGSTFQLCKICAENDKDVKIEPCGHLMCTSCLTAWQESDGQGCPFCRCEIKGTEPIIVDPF

| IC50 (Cbl-b) [µM] | fold-selectivity (Cbl-b over C-cbl) (Cbl-b) [x] | IC50 (c-Cbl) [µM] | IC50 (Cbl-b; Example 121) [µM] | (fold-selectivity) Cbl-b and C-Cbl Selectivity (Cbl-b) [x] | Compound |
| --- | --- | --- | --- | --- | --- |
| ≥ 20 | 1.0 | 20 |  |  | Cn1cnnc1[C@](F)(c1ccccc1)c1cccc(N2Cc3c(Cl)cc(CNC4(C)CCC4)cc3C2=O)c1 (single isomer, unassigned) [Compound 321] |
| 10 | 2.0 | 20 |  |  | Cn1cnnc1[C@@](F)(c1ccccc1)c1cccc(N2Cc3c(Cl)cc(CNC4(C)CCC4)cc3C2=O)c1 (single isomer, unassigned) [Compound 322] |
| 16 | 1.3 | 20 |  |  | Cc1cc([C@H](c2nncn2C)C2COC2)cc(N2Cc3c(cc(CNC4(C)CCC4)cc3C(F)(F)F)C2=O)c1 (single isomer, unassigned) [Compound 332] |
| 3.8 | 1.6 | 6 |  |  | COc1cc([C@H](c2nncn2C)C2COC2)cc(N2Cc3c(cc(CNC4(C)CCC4)cc3C(F)(F)F)C2=O)c1 (single isomer, unassigned) [Compound 338] |
| ≥ 20 | 1 | 20 |  |  | Cn1cnnc1[C@@H](c1cccc(N2Cc3c(cc(CNC4(C)CCC4)cc3C(F)(F)F)C2=O)c1)n1ccnc1 (single isomer, unassigned) [Compound 344] |
| ≥ 20 | 1 | 20 |  |  | Cn1nnnc1[C@H](c1cccc(N2Cc3c(cc(CNC4(C)CCC4)cc3C(F)(F)F)C2=O)c1)C1COC1 (single isomer, unassigned) [Compound 349] |
| 9.6 | 2.1 | 20 |  |  | Cn1ccnc1[C@H](c1cccc(N2Cc3c(cc(CNC4(C)CCC4)cc3C(F)(F)F)C2=O)c1)C1COC1 (single isomer, unassigned) [Compound 353] |
| 0.07 | 8.3 | 0.58 |  |  | Cn1cnnc1C(c1cccc(N2Cc3c(cc(CNC4(C)CCC4)cc3C(F)(F)F)C2=O)c1)[C@H]1C[C@@H](Cl)C1 (single isomer, unassigned) [Compound 354] |
| 0.15 | 13 | 2 |  |  | Cn1cnnc1C(c1cccc(N2Cc3c(cc(CNC4(C)CCC4)cc3C(F)(F)F)C2=O)c1)[C@H]1C[C@H](Cl)C1 (single isomer, unassigned) [Compound 355] |
| 0.14 | 3.5 | 0.48 |  |  | CC[C@H](c1cccc(N2Cc3c(Cl)cc(CNC4(C)CCC4)cc3C2=O)c1)c1nncn1C (single isomer, unassigned) [Compound 358] |
| 7.1 | 1.7 | 12 |  |  | CO[C@H]1C[C@](O)(C(c2cccc(N3Cc4c(cc(CNC5(C)CCC5)cc4C(F)(F)F)C3=O)c2)c2nncn2C)C1 (single isomer, unassigned) [Compound 367] |
| 4 | 1.6 | 6.4 |  |  | CO[C@H]1C[C@](O)(C(c2cccc(N3Cc4c(cc(CNC5(C)CCC5)cc4C(F)(F)F)C3=O)c2)c2nncn2C)C1 (single isomer, unassigned) [Compound 368] |
| 0.85 | 1.0 | 0.86 |  |  | CC[C@](O)(c1cccc(N2Cc3c(cc(CNC4(C)CCC4)cc3C(F)(F)F)C2=O)c1)c1nncn1C (single isomer, unassigned) [Compound 391] |
| 0.1 | 1.7 | 0.17 |  |  | Cn1cnnc1[C@H](c1cccc(N2Cc3c(cc(CNC4(C)CCC4)cc3C(F)(F)F)C2=O)c1)C1CC(OC(F)(F)F)C1 (single isomer, unassigned) [Compound 396] |
| ≥ 20 | 1.0 | 20 |  |  | CC(=O)N(C)[C@@H](c1cccc(N2Cc3c(cc(CNC4(C)CCC4)cc3C(F)(F)F)C2=O)c1)c1nncn1C (single isomer, unassigned) [Compound 400] |
| 8.5 | 1.6 | 13 |  |  | CC(=O)N1CC([C@H](c2cccc(N3Cc4c(cc(CNC5(C)CCC5)cc4C(F)(F)F)C3=O)c2)c2nncn2C)C1 (single isomer, unassigned) [Compound 401] |
|  |  | 20 | 9.9 | 2.0 | C[C@@H](NC1(C)CCC1)c1cc2c(c(C(F)F)c1)CN(c1cccc([C@@H](c3nncn3C)C3COC3)c1)C2=O (single isomer, unassigned) [Compound 406] |
|  |  | 15 | 4.5 | 3.4 | Cn1cnnc1[C@@](O)(c1ccccc1)c1cccc(N2Cc3c(Cl)cc(CNC4(C)CCC4)cc3C2=O)c1 (single isomer, unassigned) [Compound 410] |
|  |  | 20 | ≥ 20 | 1.0 | Cn1cnnc1[C@](O)(c1ccccc1)c1cccc(N2Cc3c(Cl)cc(CNC4(C)CCC4)cc3C2=O)c1 (single isomer, unassigned) [Compound 411] |
|  |  | 20 | 5.3 | 3.8 | Cn1cnnc1[C@H](c1cccc(N2Cc3c(cc(CNC4(C)CCC4)cc3C(F)(F)F)C2=O)c1)C1(O)CCC1 (single isomer, unassigned) [Compound 428] |
|  |  | 20 | 8.5 | 2.4 | Cn1cnnc1[C@H](c1cccc(N2Cc3c(cc([C@@H](NC4(C)CCC4)C4CCC4)cc3C(F)(F)F)C2=O)c1)C1COC1 (single isomer, unassigned) [Compound 435] |
|  |  | 20 | ≥ 20 | 1.0 | CC1(NCc2cc3c(c(C(F)(F)F)c2)CN(c2cccc([C@H](C4COC4)n4ccnn4)c2)C3=O)CCC1 (single isomer, unassigned) [Compound 437] |
|  |  | 20 | 3 | 6.8 | Cn1cnnc1[C@@H](c1cccc(N2Cc3c(cc(CNC4(C)CCC4)cc3C(F)(F)F)C2=O)c1)[C@@H]1CCS(=O)(=O)C1 (single isomer, unassigned) [Compound 438] |
|  |  | 20 | 14 | 1.4 | Cn1cnnc1[C@H](c1cccc(N2Cc3c(cc(CNC4(C)CCC4)cc3C(F)(F)F)C2=O)c1)[C@@H]1CCS(=O)(=O)C1 (single isomer, unassigned) [Compound 439] |
|  |  | 0.4 | 0.066 | 6.0 | CC1(NCc2cc3c(c(C(F)(F)F)c2)CN(c2cccc([C@H](c4nnc[nH]4)C4COC4)c2)C3=O)CCC1 (single isomer, unassigned) [Compound 440] |
|  |  | 20 | 6.3 | 3.2 | CC1(NCc2cc3c(c(C(F)(F)F)c2)CN(c2cccc([C@@H](c4nnc[nH]4)C4COC4)c2)C3=O)CCC1 (single isomer, unassigned) [Compound 441] |
|  |  | 11 | 7.1 | 1.6 | Cn1cnnc1[C@H](c1cccc(N2Cc3c(cc([C@@H](NC4(C)CCC4)C4CC4)cc3C(F)(F)F)C2=O)c1)C1COC1 (single isomer, unassigned) [Compound 457] |
